Measurements reported in PubChem BioAssay AID330 (DTP/NCI, 2004).
Several values for one entry are separate records, joined by “and”; a condition that tells them apart may be missing. Equal values may be shown once. Toxic doses and inconclusive results are not listed. How the source made its calls: active means survival T/C of 150% or more; inactive means T/C below 125% in these data.

Test system: P388 leukemia ip, CD2F1 mice, survival T/C
Experiment: NCI In Vivo Anticancer Drug Screen. Data for tumor model P388 Leukemia (intraperitoneal) in CD2F1 (CDF1) mice
Conditions: endpoint: median survival time, higher = longer survival
Summary of the method: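 Mice carrying the transplanted tumor received test compound or vehicle. Survival was recorded in each group, and the value is the treated-group measurement divided by that of the vehicle-treated control group.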

[1] = dose: 100.0 mg/kg/injection, schedule: Q04DX003 (ip), vehicle: saline
[2] = dose: 200.0 mg/kg/injection, schedule: Q04DX003 (ip), vehicle: saline
[3] = dose: 50.0 mg/kg/injection, schedule: Q01DX009 (ip), vehicle: saline
[4] = dose: 100.0 mg/kg/injection, schedule: Q01DX009 (ip), vehicle: saline
[5] = dose: 50.0 mg/kg/injection, schedule: Q01DX005 (ip), vehicle: Klucel (hydroxypropylcellulose) (HPC)
[6] = dose: 100.0 mg/kg/injection, schedule: Q04DX002 (ip), vehicle: Klucel (hydroxypropylcellulose) (HPC)
[7] = dose: 200.0 mg/kg/injection, schedule: Q04DX002 (ip), vehicle: Klucel (hydroxypropylcellulose) (HPC)
[8] = dose: 400.0 mg/kg/injection, schedule: Q04DX002 (ip), vehicle: Klucel (hydroxypropylcellulose) (HPC)
[9] = dose: 240.0 mg/kg/injection, schedule: Q01DX005 (ip), vehicle: saline with Tween-80
[10] = dose: 60.0 mg/kg/injection, schedule: Q01DX005 (ip), vehicle: saline with Tween-80
[11] = dose: 120.0 mg/kg/injection, schedule: Q01DX005 (ip), vehicle: saline with Tween-80
[12] = dose: 50.0 mg/kg/injection, schedule: Q01DX005 (ip), vehicle: saline with Tween-80
[13] = dose: 100.0 mg/kg/injection, schedule: Q01DX005 (ip), vehicle: saline with Tween-80
[14] = dose: 200.0 mg/kg/injection, schedule: Q01DX005 (ip), vehicle: saline with Tween-80

Measured: T/C

CC(O)(CO)C(C)(O)C(C)(O)c1cn(O)c(=N)c(C(=O)OCc2ccccc2)n1 (stereo not given)
inactive: [1] 93 % of control | [2] 102 % of control

CC(=O)N(C)c1ccc(NC(=O)Nc2cc(C)ccc2C)cc1
inactive: [3] 91 % of control | [4] 88 % of control

CC1CN(Cc2ccccc2O)CC(C)N1 (stereo not given)
inactive: dose: 6.25 mg/kg/injection, schedule: Q01DX009 (ip), vehicle: water 90 % of control | dose: 12.5 mg/kg/injection, schedule: Q01DX009 (ip), vehicle: water 93 % of control | dose: 25.0 mg/kg/injection, schedule: Q01DX009 (ip), vehicle: water 106 % of control | dose: 50.0 mg/kg/injection, schedule: Q01DX009 (ip), vehicle: water 91 % of control | dose: 100.0 mg/kg/injection, schedule: Q01DX009 (ip), vehicle: water 94 % of control

CN(/N=C\c1ccccc1)C(N)=S
inactive: [5] 105 % of control | dose: 100.0 mg/kg/injection, schedule: Q01DX005 (ip), vehicle: Klucel (hydroxypropylcellulose) (HPC) 111 % of control | dose: 200.0 mg/kg/injection, schedule: Q01DX005 (ip), vehicle: Klucel (hydroxypropylcellulose) (HPC) 101 % of control

COc1ccc2c(C)cc(N/N=C(\C)c3ccccn3)nc2c1
inactive: dose: 3.12 mg/kg/injection, schedule: Q01DX005 (ip), vehicle: Klucel (hydroxypropylcellulose) (HPC) 100 % of control | dose: 6.25 mg/kg/injection, schedule: Q01DX005 (ip), vehicle: Klucel (hydroxypropylcellulose) (HPC) 98 % of control | dose: 12.5 mg/kg/injection, schedule: Q01DX005 (ip), vehicle: Klucel (hydroxypropylcellulose) (HPC) 90 % of control and 97 % of control | dose: 25.0 mg/kg/injection, schedule: Q01DX005 (ip), vehicle: Klucel (hydroxypropylcellulose) (HPC) 95 % of control | [5] 98 % of control and 97 % of control

O=CN(Nc1ccccc1)C(=O)Nc1ccc(Cl)c(Cl)c1
inactive: [6] 96 % of control | [7] 97 % of control | [8] 104 % of control

O=C1C(Cl)=C(Cl)C(=O)c2ccccc21
inactive: dose: 5.0 mg/kg/injection, schedule: Q01DX009 (ip), vehicle: saline with Tween-80 109 % of control | dose: 5.0 mg/kg/injection, schedule: Q04DX003 (ip), vehicle: saline with Tween-80 100 % of control | dose: 10.0 mg/kg/injection, schedule: Q01DX009 (ip), vehicle: saline with Tween-80 109 % of control | dose: 10.0 mg/kg/injection, schedule: Q04DX003 (ip), vehicle: saline with Tween-80 100 % of control | dose: 20.0 mg/kg/injection, schedule: Q01DX009 (ip), vehicle: saline with Tween-80 109 % of control | dose: 20.0 mg/kg/injection, schedule: Q04DX003 (ip), vehicle: saline with Tween-80 95 % of control

O=C1N(CO)C2C(N1CO)N(CO)C(=O)N2CO (stereo not given)
inactive: [1] 109 % of control | [2] 118 % of control | dose: 400.0 mg/kg/injection, schedule: Q04DX003 (ip), vehicle: saline 118 % of control

CC(N=c1cc2n(-c3ccc(Cl)cc3)c3ccccc3nc-2cc1Nc1ccc(Cl)cc1)c1ccccc1 (stereo not given)
inactive: dose: 1.87 mg/kg/injection, schedule: Q01DX005 (ip), vehicle: saline with Tween-80 98 % of control | dose: 3.75 mg/kg/injection, schedule: Q01DX005 (ip), vehicle: saline with Tween-80 101 % of control | dose: 7.5 mg/kg/injection, schedule: Q01DX005 (ip), vehicle: saline with Tween-80 104 % of control and 86 % of control | [9] 88 % of control

CC(C)(C)CC(C)(C)c1ccc(OCc2ccc(Cl)c(Cl)c2)cc1
inactive: dose: 50.0 mg/kg/injection, schedule: Q01DX009 (ip), vehicle: saline with Tween-80 100 % of control | dose: 100.0 mg/kg/injection, schedule: Q01DX009 (ip), vehicle: saline with Tween-80 100 % of control | dose: 200.0 mg/kg/injection, schedule: Q01DX009 (ip), vehicle: saline with Tween-80 91 % of control

C=Cc1nc(=O)[nH]c(=O)[nH]1
inactive: [6] 97 % of control | dose: 100.0 mg/kg/injection, schedule: Q04DX002 (ip), vehicle: saline 101 % of control | [7] 91 % of control | dose: 200.0 mg/kg/injection, schedule: Q04DX002 (ip), vehicle: saline 108 % of control | [8] 97 % of control | dose: 400.0 mg/kg/injection, schedule: Q04DX002 (ip), vehicle: saline 98 % of control

C/C=C/c1nn(-c2ccccc2)c2c1C(=O)CC(C)O2 (stereo not given)
inactive: [10] 96 % of control | [11] 95 % of control | [9] 96 % of control

N=c1c2ccccc2cc2c3ccccc3ccn12
inactive: [10] 115 % of control | [11] 99 % of control | [9] 108 % of control

CC(NC(=O)C(N)Cc1ccc(O)cc1)C(=O)NCC(=O)N(C)C(Cc1ccccc1)C(=O)NC(CO)CCS(C)=O (stereo not given)
inactive: [3] 115 % of control | [4] 95 % of control | dose: 200.0 mg/kg/injection, schedule: Q01DX009 (ip), vehicle: saline 105 % of control

CSC(=S)n1nc(-c2ccccc2)c(N=Nc2ccc(C)cc2)c1-c1ccccc1
inactive: [12] 98 % of control | [13] 91 % of control | [14] 93 % of control

CCOC(OCC)/C(=C\N(C)C)N=C(C#N)C#N
inactive: [12] 113 % of control | [13] 111 % of control

Nc1ccccc1Nc1c([N+](=O)[O-])cc(C(F)(F)F)cc1[N+](=O)[O-]
inactive: dose: 60.0 mg/kg/injection, schedule: Q01DX005 (ip), vehicle: Klucel (hydroxypropylcellulose) (HPC) 103 % of control | dose: 120.0 mg/kg/injection, schedule: Q01DX005 (ip), vehicle: Klucel (hydroxypropylcellulose) (HPC) 105 % of control | dose: 240.0 mg/kg/injection, schedule: Q01DX005 (ip), vehicle: Klucel (hydroxypropylcellulose) (HPC) 90 % of control

CSc1nc(N)cc(C(F)(F)F)n1
inactive: [12] 88 % of control | [13] 99 % of control | [14] 97 % of control

Nc1ccc(O)c(N)c1
inactive: dose: 0.78 mg/kg/injection, schedule: Q01DX009 (ip), vehicle: saline 99 % of control | dose: 1.56 mg/kg/injection, schedule: Q01DX009 (ip), vehicle: saline 96 % of control | dose: 3.12 mg/kg/injection, schedule: Q01DX009 (ip), vehicle: saline 102 % of control | dose: 6.25 mg/kg/injection, schedule: Q01DX009 (ip), vehicle: saline 105 % of control

COC(=O)C1(C(=O)OC)C2C=CC(Cl)C21 (stereo not given)
inactive: dose: 50.0 mg/kg/injection, schedule: Q01DX009 (ip), vehicle: Klucel (hydroxypropylcellulose) (HPC) 96 % of control | dose: 100.0 mg/kg/injection, schedule: Q01DX009 (ip), vehicle: Klucel (hydroxypropylcellulose) (HPC) 104 % of control | dose: 200.0 mg/kg/injection, schedule: Q01DX009 (ip), vehicle: Klucel (hydroxypropylcellulose) (HPC) 93 % of control

O=C1C=CC2(CCC23C=CC(=O)O3)O1 (stereo not given)
inactive: dose: 10.0 mg/kg/injection, schedule: Q01DX009 (ip), vehicle: Klucel (hydroxypropylcellulose) (HPC) 98 % of control | dose: 20.0 mg/kg/injection, schedule: Q01DX009 (ip), vehicle: Klucel (hydroxypropylcellulose) (HPC) 106 % of control | dose: 40.0 mg/kg/injection, schedule: Q01DX009 (ip), vehicle: Klucel (hydroxypropylcellulose) (HPC) 106 % of control

COc1ccccc1N=Nc1cccc[c]1[Hg][Cl]
inactive: dose: 9.0 mg/kg/injection, schedule: Q01DX009 (ip), vehicle: saline 107 % of control and 113 % of control and 118 % of control | dose: 18.0 mg/kg/injection, schedule: Q01DX009 (ip), vehicle: saline 114 % of control and 119 % of control | dose: 36.0 mg/kg/injection, schedule: Q01DX009 (ip), vehicle: saline 102 % of control and 113 % of control
